Source: US20230146455A1, “TREATMENT OF INFLAMMATORY DISEASES WITH PEPTIDES AND PHARMACEUTICAL COMPOSITIONS” (Yuyu Pharma, Inc., priority 2020, published 2023)
Several values for one entry are separate records, joined by “and”; a condition that tells them apart may be missing. Equal entries are not always repeated. Where a SMILES comes first, the peptide text is derived from it. [ ]: non-standard residue; d: D form. Hyp = O=C(O)[C@@H]1C[C@@H](O)CN1

System: IL-4
Experiment: Example 9 Luminex, LPS hPBMCs: IL-4
Assay type: cell-based, human
Description: Treatment Human PBMCs were pretreated with YY-101, YDE-011 and YDE-043 or reference compound; Xiidra® at various concentration (ranging from 1 nM to 100 uM) for 2 h before stimulation. An equal volume of 0.5% DMSO was used as a vehicle control. Then, the cells were treated with LPS at 5 ug/ml. The supernatants from treated cells were harvested at 24 h and placed in a 96 well for Luminex cytokine & chemokine profiling using a Luminex 200 multiplex assay (Luminex; R&D system, USA).
The main study arm with triplicate wells per group in a 24-well plate: • 1. Blank • 2. PBMC: 0.5% DMSO • 3. PBMC+LPS (5 ug/ml) • 4. PBMC+YY-101 100 uM • 5. PBMC+YY-101 10 uM • 6. PBMC+YY-101 1 uM • 7. PBMC+YY-101 0.1 uM • 8. PBMC+YY-101 0.01 uM • 9. PBMC+LPS (5 ug/ml)+Xiidra®100 uM • 10. PBMC+LPS (5 ug/ml)+Xiidra® 10 uM • 11. PBMC+LPS (5 ug/ml)+Xiidra® 1 uM • 12. PBMC+LPS (5 ug/ml)+Xiidra®0.1 uM • 13. PBMC+LPS (5 ug/ml)+Xiidra®0.01 uM • 14. PBMC+LPS (5 ug/ml)+Xiidra®0.001 uM • 15. PBMC+LPS (5 ug/ml)+YY-101 100 uM • 16. PBMC+LPS (5 ug/ml)+YY-101 10 uM • 17. PBMC+LPS (5 ug/ml)+YY-101 1 uM • 18. PBMC+LPS (5 ug/ml)+YY-101 0.1 uM • 19. PBMC+LPS (5 ug/ml)+YY-101 0.01 uM • 20. PBMC+LPS (5 ug/ml)+YY-101 0.001 uM • 21. PBMC+LPS (5 ug/ml)+YDE-011 100 uM • 22. PBMC+LPS (5 ug/ml)+YDE-011 10 uM • 23. PBMC+LPS (5 ug/ml)+YDE-011 1 uM • 24. PBMC+LPS (5 ug/ml)+YDE-011 0.1 uM • 25. PBMC+LPS (5 ug/ml)+YDE-011 0.01 uM • 26. PBMC+LPS (5 ug/ml)+YDE-011 0.001 uM • 27. PBMC+LPS (5 ug/ml)+YDE-043 100 uM • 28. PBMC+LPS (5 ug/ml)+YDE-043 10 uM • 29. PBMC+LPS (5 ug/ml)+YDE-043 1 uM • 30. PBMC+LPS (5 ug/ml)+YDE-043 0.1 uM • 31. PBMC+LPS (5 ug/ml)+YDE-043 0.01 uM • 32. PBMC+LPS (5 ug/ml)+YDE-043 0.001 uM
Multiplex assay was used to measure 30 cytokines and chemokines. The 1:2, 1:10 and 1:200 diluted cell supernatant and serial dilution of the standard were dispensed into a 96 well plate at 50 ul/well. Then, the pre-mixed cocktail of antibody-coated magnetic beads was dispensed at 50 ul/well and incubated at room temperature for 2 h in a horizontal orbital microplate shaker at 800±500 rpm. The beads were washed using a magnetic device to prevent loss. The biotin-antibody was dispensed in 50 ul of each well and incubated at room temperature for 1 h in a shaker at 800±500 rpm. After washing, streptavidin-PE was added at 50 ul/well and incubated at room temperature for 30 min in a shaker under the same conditions. Finally, after washing, wash buffer (100 ul/well) was added to the plate and incubated in a shaker for 2 min. The Luminex™ 200 setting were set according to the manufacturer's protocol. The data was calculated with a standard five-parameter logistic nonlinear regression analysis of the data (xPonent software 4.2, USA). The levels of cytokine/chemokine are normalized to the live cell counts (1×10^5 cells/mL) and presented as concentrations per mL (pg/mL or ng/mL).

[1] = PBMC + LPS(5 ug/ml) + test article 0.1 uM, single replicates
[2] = PBMC + LPS(5 ug/ml) + test article 1 uM, Mean
[3] = PBMC + LPS(5 ug/ml) + test article 1 uM, single replicates
[4] = PBMC + LPS(5 ug/ml) + test article 10 uM, Mean
[5] = PBMC + LPS(5 ug/ml) + test article 10 uM, single replicates
[6] = PBMC + LPS(5 ug/ml) + test article 100 uM, Mean
[7] = PBMC + LPS(5 ug/ml) + test article 100 uM, single replicates
[8] = PBMC + test article 0.01 uM, no LPS, Mean
[9] = PBMC + test article 0.01 uM, no LPS, single replicates
[10] = PBMC + test article 0.1 uM, no LPS, Mean
[11] = PBMC + test article 0.1 uM, no LPS, single replicates
[12] = PBMC + test article 1 uM, no LPS, Mean
[13] = PBMC + test article 1 uM, no LPS, single replicates
[14] = PBMC + test article 10 uM, no LPS, Mean
[15] = PBMC + test article 10 uM, no LPS, single replicates
[16] = PBMC + test article 100 uM, no LPS, Mean
[17] = PBMC + test article 100 uM, no LPS, single replicates

With `CC(C)C[C@H](NC(=O)CNC(=O)[C@H](CC(=O)O)NC(=O)[C@H](CCC(N)=O)NC(=O)CNC(=O)[C@@H]1C[C@@H](O)CN1)C(=O)N[C@@H](C)C(=O)NCC(=O)N1CCC[C@H]1C(=O)N[C@@H](CCCCN)C(=O)O` [YY-101] (H-[Hyp]GQDGLAGPK-OH; N-terminus and C-terminus assumed) as the compound, how does the “conc/live cell, Bead name: IL-4” value (PBMC + LPS(5 ug/ml) + test article 0.1 uM, Mean) read?
The value was 6.8 pg/10^5.

And the “Concentration, Bead name: IL-4” value [1]?
The value was 39.4 pg/mL and 45.1 pg/mL and 33.2 pg/mL.

What about the “MFI, Bead name: IL-4” value [1] of the same compound?
Its value is 3.0 and 4.0 and 2.0.

What about the “conc/live cell, Bead name: IL-4” value [1] of the same compound?
Its value is 6.4 pg/10^5 and 8.7 pg/10^5 and 5.4 pg/10^5.

And the “Concentration, Bead name: IL-4” value [2]?
The value was 33.2 pg/mL.

What about the “MFI, Bead name: IL-4” value [2] of the same compound?
Its value is 2.0.

And the “conc/live cell, Bead name: IL-4” value [2]?
The value was 5.1 pg/10^5.

And the “Concentration, Bead name: IL-4” value [3]?
Its value is 33.2 pg/mL.

What about the “MFI, Bead name: IL-4” value [3] of the same compound?
The value was 2.0.

And the “conc/live cell, Bead name: IL-4” value [3]?
Its value is 5.3 pg/10^5 and 4.7 pg/10^5 and 5.4 pg/10^5.

And the “Concentration, Bead name: IL-4” value [4]?
Its value is 23.7 pg/mL.

What about the “MFI, Bead name: IL-4” value [4] of the same compound?
The value was 0.7.

And the “conc/live cell, Bead name: IL-4” value [4]?
Its value is 3.6 pg/10^5.

And the “Concentration, Bead name: IL-4” value [5]?
Its value is 26.4 pg/ml (2×) and 18.4 pg/ml.

And the “MFI, Bead name: IL-4” value [5]?
The value was 1.0 (2×) and 0.0.

And the “conc/live cell, Bead name: IL-4” value [5]?
The value was 4.4 pg/10^5 and 4.1 pg/10^5 and 2.4 pg/10^5.

And the “Concentration, Bead name: IL-4” value [6]?
Its value is 14.8 pg/mL.

What about the “MFI, Bead name: IL-4” value [6] of the same compound?
Its value is −0.3.

What about the “conc/live cell, Bead name: IL-4” value [6] of the same compound?
The value was 2.5 pg/10^5.

What about the “Concentration, Bead name: IL-4” value [7] of the same compound?
Its value is 18.4 pg/ml (2×) and 7.7 pg/ml.

And the “MFI, Bead name: IL-4” value [7]?
Its value is 0.0 (2×) and −1.0.

What about the “conc/live cell, Bead name: IL-4” value [7] of the same compound?
The value was 2.9 pg/10^5 and 3.0 pg/10^5 and 1.5 pg/10^5.

What about the “Concentration, Bead name: IL-4” value [8] of the same compound?
Its value is 27.9 pg/mL.

And the “MFI, Bead name: IL-4” value [8]?
Its value is 1.3.

What about the “conc/live cell, Bead name: IL-4” value [8] of the same compound?
Its value is 5.6 pg/10^5.

And the “Concentration, Bead name: IL-4” value [9]?
The value was 22.6 pg/mL and 33.2 pg/mL.

What about the “MFI, Bead name: IL-4” value [9] of the same compound?
Its value is 0.5 and 2.0.

And the “conc/live cell, Bead name: IL-4” value [9]?
The value was 4.3 pg/10^5 and 6.9 pg/10^5.

And the “Concentration, Bead name: IL-4” value [10]?
The value was 29.8 pg/mL.

And the “MFI, Bead name: IL-4” value [10]?
The value was 1.5.

And the “conc/live cell, Bead name: IL-4” value [10]?
The value was 5.9 pg/10^5.

What about the “Concentration, Bead name: IL-4” value [11] of the same compound?
Its value is 26.4 pg/mL and 33.2 pg/mL.

What about the “MFI, Bead name: IL-4” value [11] of the same compound?
The value was 1.0 and 2.0.

What about the “conc/live cell, Bead name: IL-4” value [11] of the same compound?
Its value is 6.0 pg/10^5 and 5.7 pg/10^5.

And the “Concentration, Bead name: IL-4” value [12]?
The value was 18.4 pg/mL.

And the “MFI, Bead name: IL-4” value [12]?
Its value is 0.0.

And the “conc/live cell, Bead name: IL-4” value [12]?
The value was 3.3 pg/10^5.

And the “Concentration, Bead name: IL-4” value [13]?
The value was 18.4 pg/mL.

And the “MFI, Bead name: IL-4” value [13]?
Its value is 0.0.

What about the “conc/live cell, Bead name: IL-4” value [13] of the same compound?
Its value is 3.3 pg/10^5.

And the “Concentration, Bead name: IL-4” value [14]?
Its value is 47.4 pg/mL.

And the “MFI, Bead name: IL-4” value [14]?
Its value is 4.5.

What about the “conc/live cell, Bead name: IL-4” value [14] of the same compound?
The value was 7.6 pg/10^5.

What about the “Concentration, Bead name: IL-4” value [15] of the same compound?
The value was 55.5 pg/mL and 39.4 pg/mL.

What about the “MFI, Bead name: IL-4” value [15] of the same compound?
The value was 6.0 and 3.0.

And the “conc/live cell, Bead name: IL-4” value [15]?
The value was 8.7 pg/10^5 and 6.5 pg/10^5.

What about the “Concentration, Bead name: IL-4” value [16] of the same compound?
Its value is 13.0 pg/mL.

What about the “MFI, Bead name: IL-4” value [16] of the same compound?
The value was −0.5.

What about the “conc/live cell, Bead name: IL-4” value [16] of the same compound?
Its value is 1.9 pg/10^5.

What about the “Concentration, Bead name: IL-4” value [17] of the same compound?
The value was 7.7 pg/mL and 18.4 pg/mL.

What about the “MFI, Bead name: IL-4” value [17] of the same compound?
The value was −1.0 and 0.0.

And the “conc/live cell, Bead name: IL-4” value [17]?
The value was 1.2 pg/10^5 and 2.6 pg/10^5.
